Measurements as given in patent publication US20240287052A1, “NOVEL OXAZOLE DERIVATIVE AND PHARMACEUTICAL COMPOSITION FOR PREVENTING OR TREATING ALLERGIC DISEASES COMPRISING THE SAME” (AZCURIS CO., LTD., priority 2021, published 2024).
Where two headings read alike, the source gives them in different places.

Target: T1, IL33 and ST2 binding (Homo sapiens, UniProt O95760)
T1 sequence (O95760 112-270 limits assumed): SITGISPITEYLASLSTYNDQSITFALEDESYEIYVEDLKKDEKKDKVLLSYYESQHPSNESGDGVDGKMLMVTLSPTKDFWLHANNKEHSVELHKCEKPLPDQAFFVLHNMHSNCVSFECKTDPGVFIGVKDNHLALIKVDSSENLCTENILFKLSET
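Note: plate ELISA with coated Flag-tagged human IL-33 and His-tagged human ST2, bound ST2 detected by anti-His HRP and TMB absorbance at 450 nm, 2 h compound incubation.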

inhibition (30 µM) [%] | inhibition (100 µM) [%] | Structure (SMILES)
20 | 24 | CN(C)CCN1CCN(C(=O)c2nc(-c3cccc(C(F)(F)F)c3)oc2-c2ccccc2[N+](=O)[O-])CC1 [Compound 125, (4-(2-(Dimethylamino)ethyl)piperazin-1-yl)(5-(2-nitrophenyl)-2-(3-(trifluoromethyl)phenyl)oxazol-4-yl)methanone]
-34 | -9 | COc1ccc(-c2nc(C(=O)NCCN3CCN(C)CC3)c(-c3ccccc3)o2)cc1 [Compound 213, 2-(4-Methoxyphenyl)-N-(2-(4-methylpiperazin-1-yl)ethyl)-5-phenyloxazole-4-carboxamide]
95 | 110 | CCOC(=O)c1nc(-c2ccc(Cl)cc2)oc1-c1ccccc1 [Compound 77, Ethyl 2-(4-chlorophenyl)-5-phenyloxazole-4-carboxylate]
10 | 9 | CN(C)CCNC(=O)c1coc(-c2ccc(C(F)(F)F)cc2)n1 [Compound 114, N-(2-(dimethylamino)ethyl)-2-(4-(trifluoromethyl)phenyl)oxazole-4-carboxamide]
14 | -6 | CN1CCN(CCNC(=O)c2nc(-c3cccc(Cl)c3)oc2-c2ccccc2[N+](=O)[O-])CC1 [Compound 243, 2-(3-chlorophenyl)-N-(2-(4-methylpiperazin-1-yl)ethyl)-5-(2-nitrophenyl)oxazole-4-carboxamide]
50 | 31 | CN1CCN(CCNC(=O)c2nc(-c3cccc(C(F)(F)F)c3)oc2-c2ccccc2[N+](=O)[O-])CC1 [Compound 124, N-(2-(4-Methylpiperazin-1-yl)ethyl)-5-(2-nitrophenyl)-2-(3-(trifluoromethyl)phenyl)oxazole-4-carboxamide]
8 | 5 | CCOC(=O)c1nc(-c2ccc(C(F)(F)F)cc2)oc1-c1cccc(N)c1 [Compound 100, Ethyl 5-(3-aminophenyl)-2-(4-(trifluoromethyl)phenyl)oxazole-4-carboxylate]
41 | 107 | CCOC(=O)c1nc(-c2ccc(C#N)cc2)oc1-c1ccccc1 [Compound 79, Ethyl 2-(4-cyanophenyl)-5-phenyloxazole-4-carboxylate]
18 | 20 | CSc1ccc(-c2nc(C(=O)NCCN3CCN(C)CC3)c(-c3ccccc3[N+](=O)[O-])o2)cc1 [Compound 274, N-(2-(4-Methylpiperazin-1-yl)ethyl)-2-(4-(methylthio)phenyl)-5-(2-nitrophenyl)oxazole-4-carboxamide]
18 | 41 | CCOC(=O)c1nc(-c2ccc(F)c(F)c2)oc1-c1ccccc1 [Compound 70, Ethyl 2-(3,4-difluorophenyl)-5-phenyloxazole-4-carboxylate]
30 | 53 | CCOC(=O)c1nc(-c2ccccc2C(F)(F)F)oc1-c1ccccc1[N+](=O)[O-] [Compound 28, Ethyl 5-(2-nitrophenyl)-2-(2-(trifluoromethyl)phenyl)oxazole-4-carboxylate]
-35 | -57 | O=C(c1nc(-c2ccc(C(F)(F)F)cc2)oc1-c1ccccc1[N+](=O)[O-])N1CCN(C2CC2)CC1 [Compound 146, (4-Cyclopropylpiperazin-1-yl)(5-(2-nitrophenyl)-2-(4-(trifluoromethyl)phenyl)oxazol-4-yl)methanone]
19 | 26 | CCOC(=O)c1nc(-c2ccc(C(C)(C)C)cc2)oc1-c1ccc(N(C(C)=O)C(C)=O)cc1 [Compound 110, Ethyl 5-(4-(N-acetylacetamido)phenyl)-2-(4-(tert-butyl)phenyl)oxazole-4-carboxylate]
-6 | -14 | CN(C)CCNC(=O)c1nc(-c2ccccc2C(F)(F)F)oc1-c1ccccc1[N+](=O)[O-] [Compound 119, N-(2-(Dimethylamino)ethyl)-5-(2-nitrophenyl)-2-(2-(trifluoromethyl)phenyl)oxazole-4-carboxamide]
12 | 19 | O=C(NCc1ccc(C(F)(F)F)cc1)c1nc(-c2ccc(C(F)(F)F)cc2)oc1-c1ccccc1[N+](=O)[O-] [Compound 148, 5-(2-Nitrophenyl)-N-(4-(trifluoromethyl)benzyl)-2-(4-(trifluoromethyl)phenyl)oxazole-4-carboxamide]
29 | 38 | CN1CCN(CCNC(=O)c2nc(-c3cccc(F)c3)oc2-c2ccccc2[N+](=O)[O-])CC1 [Compound 223, 2-(3-Fluorophenyl)-N-(2-(4-methylpiperazin-1-yl)ethyl)-5-(2-nitrophenyl)oxazole-4-carboxamide]
-7 | -5 | CN(C)CCNC(=O)c1nc(-c2cccc(OC(F)(F)F)c2)oc1-c1ccccc1[N+](=O)[O-] [Compound 201, N-(2-(Dimethylamino)ethyl)-5-(2-nitrophenyl)-2-(3-(trifluoromethoxy)phenyl)oxazole-4-carboxamide]
49 | 71 | CCOC(=O)c1nc(-c2cccc(F)c2)oc1-c1ccccc1[N+](=O)[O-] [Compound 66, Ethyl 2-(3-fluorophenyl)-5-(2-nitrophenyl)oxazole-4-carboxylate]
3 | 49 | CN1CCN(CCNC(=O)c2nc(-c3ccc(-c4ccccc4)cc3)oc2-c2ccccc2[N+](=O)[O-])CC1 [Compound 256, 2-([1,1′-Biphenyl]-4-yl)-N-(2-(4-methylpiperazin-1-yl)ethyl)-5-(2-nitrophenyl)oxazole-4-carboxamide]
33 | 65 | CCOC(=O)c1nc(-c2ccc(OC)cc2)oc1-c1ccccc1 [Compound 62, Ethyl 2-(4-methoxyphenyl)-5-phenyloxazole-4-carboxylate]
16 | 4 | CN(C)CCNC(=O)c1nc(-c2ccc(C3CC3)cc2)oc1-c1ccccc1 [Compound 279, 2-(4-Cyclopropylphenyl)-N-(2-(dimethylamino)ethyl)-5-phenyloxazole-4-carboxamide]
-25 | -18 | CSc1ccc(-c2nc(C(=O)NCCN(C)C)c(-c3ccccc3[N+](=O)[O-])o2)cc1 [Compound 273, N-(2-(Dimethylamino)ethyl)-2-(4-(methylthio)phenyl)-5-(2-nitrophenyl)oxazole-4-carboxamide]
6 | 1 | CN(C)CCNC(=O)c1nc(-c2ccc3ccccc3c2)oc1-c1ccccc1 [Compound 257, N-(2-(Dimethylamino)ethyl)-2-(naphthalen-2-yl)-5-phenyloxazole-4-carboxamide]
91 | 92 | CN(C)CCNC(=O)c1nc(-c2ccc(C(F)(F)F)cc2)oc1-c1ccccc1[N+](=O)[O-] [Compound 131, N-(2-(Dimethylamino)ethyl)-5-(2-nitrophenyl)-2-(4-(trifluoromethyl)phenyl)oxazole-4-carboxamide]

Structure (SMILES) | inhibition (30 µM) [%] | inhibition (100 µM) [%]
CN1CCN(CCNC(=O)c2nc(-c3ccc([N+](=O)[O-])cc3)oc2-c2ccccc2[N+](=O)[O-])CC1 [Compound 278, N-(2-(4-Methylpiperazin-1-yl)ethyl)-5-(2-nitrophenyl)-2-(4-nitrophenyl)oxazole-4-carboxamide] | 46 | 47
